Reference: patent US6897228B2, “Pyridoxine and pyridoxal analogues: new uses” (Medicure International Inc., priority 2000, dated 2005)

Legend:
[1] = system: platelets (platelet rich plasma); assay: Inhibition of platelet aggregation (aggregometer, platelet rich plasma); assay type: cell-based; settings: for Extent of aggregation as a percentage amplitude, 1 μg/mL collagen: agonist 1 μg/mL collagen; for Extent of aggregation as a percentage amplitude, 4 μM ADP: agonist 4 μM ADP; for Extent of aggregation as a percentage amplitude, 5 μg/mL collagen: agonist 5 μg/mL collagen; for Extent of aggregation as a percentage amplitude, 12 μM TRAP: agonist 12 μM TRAP
Experimental: Platelet rich plasma (PRP) was obtained by drawing whole blood into sodium citrate tubes (3.2%) and centrifuging at 700 rpm for 10 minutes. Platelet poor plasma (PPP) was obtained by centrifuging the remainder of the sample ntil the platelets were removed (3200 rpm for 10 minutes). The PRP was adjusted to a count of 280×10^9/L using a mixture of PRP and PPP. The incubation mixture consisted of 200 μL of platelets and 25 μL of the appropriate compound (18 mM stock for a final concentration of 2 mM and 4.5 mM stock for a final concentration of 500 μM), rendering an approximate final platelet count in the incubation mixture of 250×10^9/L. After incubation (30 minutes at room temperature, the cuvettes were incubated for 3 minutes at 37° C., transferred to the mixing wells and after the baselines transmittances were measured in an aggregometer (Chrono-Log 4), 25 μL of agonist was added to give a final concentration of 4 μM ADP, 1 μg/mL collagen, 5 μg/mL collagen or 12 μM thrombin receptor activating peptide (TRAP). Final transmittances were then measured in the aggregometer (lower percent transmittance represents higher aggregation). […] Table 24-1 gives the results of the extent of aggregation for several compounds as percentage amplitude read directly from the aggregometer.

[2] = system: male Sprague-Dawley rats, occlusion of the left coronary artery; assay: In vivo infarct size and scar mass after coronary artery ligation; set-up: species or system rat; settings: after 21 days, 10 mg/kg daily by gastric tube; for infarct size (as a percentage of left ventricle size): untreated control about 45
Experimental: (§1) Food and water were supplied ad libitum. […] Hemodynamic and histological assessments were made.
After 21 days, once the hemodynamic data were obtained, the animals were sacrificed and both average dry scar mass to left ventricle mass (n=5/group) and infarct size (n=5/group) were measured. For infarct size measurement, hearts from the untreated and PLP/compound XXIIb-treated groups were fixed in formalin and embedded in paraffin. Six evenly spaced slices were cut across the left ventricle. […] sections were cut from each slice and mounted. Sections were stained with Trichrome to discriminate between fibrous scar and noninfarcted tissue. Using the free-drawing line tool in Scion Image v4.02b, infarct internal perimeter and left ventricle internal perimeter lengths were traced per oculum for each section. Noteworthy transmural scars were taken into account. Infarct size was then expressed as the average scar perimeter/ventricle perimeter ratio. Scar mass measurements were obtained by drying excised scar tissue and left ventricles at 50-60° C. for 72 hours.

[3] = system: male Sprague-Dawley rats, occlusion of the left coronary artery; assay: In vivo hypertrophy after coronary artery ligation; settings: rat model of Example 20
Experimental: as §1
Hypertrophy is a physiological condition of enlargement (increased mass) due to increased stress. Cardiac hypertrophy is assessed by calculating the heart to body mass ratio. Treatment with PLP or compound XXIIb results in a decrease in cardiac hypertrophy, in the rat model described in Example 20.

[4] = system: male Sprague-Dawley rats, occlusion of the left coronary artery; assay: In vivo hemodynamic changes after coronary artery ligation; settings: day 21 after coronary ligation; 10 mg/kg daily by gastric tube

Molecule	Extent of aggregation as a percentage amplitude, 1 μg/mL collagen ([1]; compound 500 μM) [%]	Extent of aggregation as a percentage amplitude, 4 μM ADP ([1]; compound 500 μM) [%]	Extent of aggregation as a percentage amplitude, 5 μg/mL collagen ([1]; compound 500 μM) [%]	Extent of aggregation as a percentage amplitude, 12 μM TRAP ([1]; compound 500 μM) [%]	Extent of aggregation as a percentage amplitude, 1 μg/mL collagen ([1]; compound 2 mM) [%]	Extent of aggregation as a percentage amplitude, 4 μM ADP ([1]; compound 2 mM) [%]	Extent of aggregation as a percentage amplitude, 5 μg/mL collagen ([1]; compound 2 mM) [%]	Extent of aggregation as a percentage amplitude, 12 μM TRAP ([1]; compound 2 mM) [%]	dry scar to left ventricle mass ratio [2]	infarct size (as a percentage of left ventricle size) [2]	cardiac hypertrophy (heart to body mass ratio) [3]	+dP/dt (rate of contraction) [4]	LVEDP in response to coronary occlusion [4]	−dP/dt (rate of relaxation) [4]
Cc1ncc(CNc2ccc(C(=N)N)cc2)c(CO)c1O [Compound XXXV]	83	70	75	90	79	15	67	11						
4-methylimidazole pyridoxine [XXIIb]	79	59	82	91	32	46	77	84	reductions similar in magnitude to that seen in the PLP group	reduced	decrease	recoveries	reduced rises	recoveries
Cc1ncc(COP(=O)(O)O)c(C=O)c1O [PLP, 3-hydroxy-2-methyl-5-[(phosphonooxy)methyl]-4-pyridine-carboxaldehyde, reference compound]	89	69	87	90	84	16	89	91	reduced	reduced	decrease	recoveries	reduced rises	recoveries
